# From paper PMC10384010, “Chromatographic Data in Statistical Analysis of BBB Permeability Indices” (Membranes, 2023)
# Columns and labels:
# Type in all cases: physicochemical
# [1] = Reversed-phase TLC on RP-2 silanized plates (Rf); conditions: silica gel 60 RP-2 F254 silanized; water:methanol:acetonitrile 60:20:20, ammonium acetate pH 7.4
# [2] = HPLC on IAM (immobilized artificial membrane) column, retention factor; conditions: IAM.PC.DD.2 column; for k(IAM) retention factor: 10 mM phosphate buffer pH 7.4:acetonitrile 80:20; for logkIAM: logarithm of retention factor, phosphate buffer pH 7.4:acetonitrile 80:20
# [3] = Normal-phase TLC on silica gel 60 F254 (Rf); conditions: water:methanol:acetonitrile 60:20:20, ammonium acetate pH 7.4
Molecule,RP (Rf from RP-2 TLC plate) [1],k(IAM) retention factor [2],logkIAM [2],NP (Rf from NP TLC plate) [3]
CCCCc1oc2ccccc2c1C(=O)c1cc(I)c(OCCN(CC)CC)c(I)c1 [amiodarone],0.33,,,
CCOC(=O)C1=C(COCCN)NC(C)=C(C(=O)OC)C1c1ccccc1Cl (centres unmarked) [amlodipine],0.61,98.90,2.00,
CC(C)c1c(C(=O)Nc2ccccc2)c(-c2ccccc2)c(-c2ccc(F)cc2)n1CC[C@@H](O)C[C@@H](O)CC(=O)O [atorvastatin],0.8,,,
O=C1CC2(CCCC2)CC(=O)N1CCCCN1CCN(c2ncccn2)CC1 [buspirone],,7.00,0.84,0.57
Cn1c(=O)c2c(ncn2C)n(C)c1=O [caffeine],,0.18,-0.75,0.82
C[C@H](CS)C(=O)N1CCC[C@H]1C(=O)O [captopril],,0.01,-2.19,0.77
CN(C)CCCN1c2ccccc2CCc2ccc(Cl)cc21 [clomipramine],,,,0.33
Clc1ccc2c(c1)CCc1cccnc1C2=C1CCNCC1 [desloratidine],,50.45,1.70,
C[C@H]1O[C@@H](O[C@H]2[C@@H](O)C[C@H](O[C@H]3[C@@H](O)C[C@H](O[C@H]4CC[C@@]5(C)[C@H](CC[C@@H]6[C@@H]5C[C@@H](O)[C@]5(C)[C@@H](C7=CC(=O)OC7)CC[C@]65O)C4)O[C@@H]3C)O[C@@H]2C)C[C@H](O)[C@@H]1O [digoxin],,3.69,0.57,
COCCCC/C(=N\OCCN)c1ccc(C(F)(F)F)cc1 [fluvoxamine],,,,0.34
CC(C)Cc1ccc(C(C)C(=O)O)cc1 (centres unmarked) [ibuprofen],,0.86,-0.07,
CC(C(=O)O)c1cccc(C(=O)c2ccccc2)c1 (centres unmarked) [ketoprofen],,0.20,-0.71,
O=C(O)COCCN1CCN([C@H](c2ccccc2)c2ccc(Cl)cc2)CC1 [levocetrizine],,,0.58,0.63
Cc1cnc(NC(=O)C2=C(O)c3ccccc3S(=O)(=O)N2C)s1 [meloxicam],,0.49,-0.31,0.99
CCN(CC)CCNC(=O)c1cc(Cl)c(N)cc1OC [metoclopramide],,6.16,0.79,
Nc1cc(N2CCCCC2)nc(N)[n+]1[O-] [minoxidil],,,,0.43
CC(C)(O)c1ccccc1CC[C@@H](SCC1(CC(=O)O)CC1)c1cccc(/C=C/c2ccc3ccc(Cl)cc3n2)c1 [montelukast],,99.10,2.00,
Cc1cc2c(s1)Nc1ccccc1N=C2N1CCN(C)CC1 [olanzapine],,20.31,1.31,
CC(C)NCC(O)COc1cccc2ccccc12 (centres unmarked) [propranolol],,28.09,1.45,0.54
CN[C@@H](C)[C@@H](O)c1ccccc1 [pseudoephedrine],,2.21,0.34,
Cc1nc2n(c(=O)c1CCN1CCC(c3noc4cc(F)ccc34)CC1)CCCC2 [risperidone],,4.83,0.68,
CN1C(=O)C(O)N=C(c2ccccc2)c2cc(Cl)ccc21 (centres unmarked) [temazepam],,6.74,0.83,
Cn1c(=O)c2[nH]cnc2n(C)c1=O [theophylline],,0.12,-0.94,
Cc1ccc(O)c([C@H](CCN(C(C)C)C(C)C)c2ccccc2)c1 [tolterodine],,0.21,-0.68,
Cc1ccc(-c2nc3ccc(C)cn3c2CC(=O)N(C)C)cc1 [zolpidem],,2.60,0.42,
PABA,,0.01,-1.88,
